The structures appear in SMILES notation. Like-named read-outs stand apart in the source and are kept apart here.

The test system of the test is microbes.

Regarding `OO` [hydrogen peroxide], the microbes eliminated is, setting by setting: (3% hydrogen peroxide together with radiation of a wavelength between 300 and 600 nanometers) 99.999%; (3% solution of hydrogen peroxide alone) “approximately 30%”.

Values taken from patent US11007554B2, “Method, system and device for reducing microbial concentration and/or biofilm formation” (EMODs Technology, L.L.C., priority 2018, dated 2021).
